Reference: patent publication US7767196B2, “Optimized relaxivity and specificity hepatobiliary MRI contrast agent” (priority 2005, dated 2010)
Where “and” joins values, the source holds several entries; their conditions need not be identical. Equal values may be shown once. Read-outs that look alike come from different tables or passages of the source.

Legend:
[1] = cited from earlier work
rats = settings: cited from earlier work
[2] = system: non-tumorigenic immortalized liver cell line (MIHA); assay: Hepatocellular uptake (ICP-MS of Gd per cell); type: cell-based
Method: The non-tumorigenic immortalized liver cell line (MIHA) was grown and incubated in different concentrations of GdL and Gd-BOPTA. The mole of gadolinium uptake per cell under different concentrations of GdL incubation is presented as a function of concentration in FIG. 16. […] The average increase is 7.2×10^−13 mole of Gd per cell (about 1.97 times more than Gd-BOPTA) and the maximum uptake is 3.1×10^−12 mol of Gd per cell at 5 mM. There was no gadolinium ion found in the control experiments in the absence of GdL. The uptake varied slightly at the incubation concentration of less than 0.5 mM and linearly when the concentration increases from 0.5 to 5 mM. […]
The non-tumorigenic immortalized liver cell line (MIHA) (kindly provided by Dr J. R. Chowdhury at the Albert Einstein College of Medicine, New York) was grown in a 96-well plate (polystyrene, flat bottom tissue-culture treated, black with clear bottom) with Dulbecco's modified Eagle's medium (DMEM with 4 mM L-glutamine modified to contain 4.5 g l^−1 glucose and 1.5 g l^−1 sodium bicarbonate) containing 10% Bovine Calf Serum (BCS) in a 5% carbon dioxide incubator. […] The cells were exposed to 100 μl of 0.25% trypsin and harvested, then counted by hemacytometer. […] The samples were analyzed by Agilent 7500a ICP-MS with ICP-MS Top installed.

liver [3] = settings: Schima et al., J. Magn. Res. Imaging 1999; cited from earlier work
[4] = Variable-temperature 17O NMR transverse relaxation (water exchange); type: physicochemical; settings: for τm: fitting parameter, 17O transverse relaxivity study
Method: Further investigation into the transverse relaxivity changes against temperature as shown in FIG. 6 was performed to determine the exchange rate. The maximum appears at a lower temperature, which implies a faster water exchange rate. The water exchange rates of the discussed ligands are in the order of Gd-BOPTA (kex=5.0×10^6)>Gd-DTPA (kex=4.0×10^6)>Gd-DOTA (kex=3.3×10^6)>GdL (kex=1.1×10^6). As anionic complexes promote water exchange, the first three complexes are anionic species with faster water exchange rates. GdL is neutral with a lower exchange rate, but with a lower osmolality, and importantly, the highest relaxivity.
Variable-temperature ^17O NMR measurements were recorded on a JEOL EX-90 (2.1 T) spectrometer that was equipped with a 5 mm probe, using D2O for external lock of the magnetic field. Experimental settings were spectral width 10000 Hz, pulse width 7 μs, acquisition time 10 ms, 1000 scans, and no sample spinning. The solution used contained ^17O enriched water (2.6%, Yeda, Israel). The observed transverse relaxation rate (R^O2obs) was calculated from the line width of the resonance at half height (Δν1/2): R^O2obs=πΔν1/2.

hepatocytes [5] = settings: cited from earlier work
hepatocytes [6] = settings: cited from earlier work; remark: listed apart in the source
[7] = NMRD profile / relaxometric measurements (1H longitudinal relaxivity, incl. temperature and pH dependence); type: physicochemical; settings: for R1p: 20 MHz and 25° C.; for relaxivity (NMRD profile): 20 MHz, 7.2 pH and 25° C.; for rGdH / Δ^2 / τr / τv: fitting parameter, NMRD profile
Description: Relaxivity is used to describe the efficiency of a paramagnetic substance in increasing the water longitudinal relaxation rate. NMRD profiling is a direct method of measuring the proton relaxivity, and in principle it is sensitive to all of the parameters that influence relaxivity. It is the nuclear relaxation rate (1/T1) as a function of the Larmor frequency or the magnetic field, and describes the excess longitudinal proton relaxation that is caused by the presence of contrast agents as a function of the magnetic field using a field-cycling technique. The NMRD profile can probe the relaxivity mechanisms and understand how changes in the chemical structure of the complex interfere with them. The change in experimental parameters such as temperature and pressure influences the physical or chemical state of the sample, but the variation of the magnetic field has no influence on the chemistry of the sample. Thus, NMRD is a useful technique in the understanding of the numerous physiochemical parameters that determine the field dependence of proton relaxivities. The innersphere, outersphere, and second sphere contribute to the overall relaxivity and are influenced by numerous parameters, which are too complex to be well-defined by a single NMRD study; usually, reference to independent ^17O NMR relaxation rates and chemical shift is made. By the equations 2-7, several parameters that are related to the outersphere, and innersphere relaxation, such as the hydration number q, the τm, τR, τv, Δ^2, and rGdH, can be estimated.
As shown in FIGS. 5-8, all complexes have one innersphere water molecule. At low field, the electronic relaxation dominates the dipole-dipole correlation time for innersphere relaxivity and results in the first dispersion at around a […] proton Larmor frequency, while at high field, rotation relaxation dominates and the dispersion is at around 30 MHz. The higher relaxivity as compared to the clinical agents is postulated to the longer reorientational correlation time τR and the shorter rGdH. Relaxivity has a dependence on the τR at 20 MHz, which is determined by the molecular dimension.
The temperature and pH dependence of the longitudinal relaxivity were measured to study the tolerance of the complex under different physiological conditions (see FIGS. 9-10). At the low temperature under the slow exchange rate (τm>>T1M) a relatively longer τm is insignificant. The innersphere quenching is not severed and is not dominated by the outersphere mechanism at 273-278 K. Beyond 278 K the innersphere contribution increases up to 288 K. This is the τm≈T1M region, where the onset of the innersphere and the slow water exchange is not interfered with. From 288 K to 330 K, there is a gradual drop in the relaxivity due to the increase in D and T1M which causes both the innersphere and outersphere relaxivities to fall under the fast exchange condition (τm<<T1M). The relaxivity is 4.93 mM^−1s^−1at physiological temperature. […] The structural arrangement around the metal centre is not severely distorted, which allows a high stability against different pH.
NMRD profiles measure the longitudinal water proton relaxation rate as a function of magnetic fields. Measurements were performed by a Spinmaster FFC fast field cycling NMR relaxometer that covered a continuum of magnetic fields from 0.00024 to 0.47 T. The temperature was controlled by circulating Freon from an external bath and measured by a thermometer that was inserted into the Freon close to the sample. The relaxometer worked under complete control with the reproducibility of the measured T1 values estimated to be ±2%. The NMRD profiles were acquired for a 1-2 mM solution of the complex. Xylenol orange test was employed to check the absence of free Gd(III).

[8] = versus 0.29 osmol kg^−1 of body fluid; cited from earlier work
liver [9] = settings: 0.1 mmol kg^−1 dose, intravenous bolus; cited from earlier work
[10] = 20 MHz, temperature in parentheses: 40

Row | SMILES | Relaxivity [1, 10] | Relaxivity ([1]; 20 MHz and 25° C.) | water exchange rate kex [4] | τm [4] | R1p [7] | rGdH [7] | Δ^2 [7] | τr [7] | τv [7] | further results
1 | O=C([O-])CN1CCN(CC(=O)[O-])CCN([C@H](CO)[C@H](O)CO)CCN(CC(=O)[O-])CC1.[Gd+3] (racemic) [Gd-DO3A-butrol, gadobutrol] | 3.60 (40) mM^−1 s^−1 | – | – | – | – | – | – | – | – | –
2 | [Gd+3] [Gd(III) aqua ion] | – | – | – | – | – | – | – | – | – | LD50 (rats): 0.1 to 0.2 mmol/kg
3 | CNC(=O)CN(CCN(CCN(CC(=O)[O-])CC(=O)NC)CC(=O)[O-])CC(=O)[O-].[Gd+3] [Gd-BMA, gadodiamide] | – | 4.39 mM⁻¹ s⁻¹ | – | – | – | – | – | – | – | –
4 | COCCNC(=O)CN(CCN(CCN(CC(=O)[O-])CC(=O)NCCOC)CC(=O)[O-])CC(=O)[O-].[Gd+3] [Gd-BMEA, gadoversetamide] | 4.70 (40) mM^−1 s^−1 | – | – | – | – | – | – | – | – | –
5 | CNC[C@H](O)[C@@H](O)[C@H](O)[C@H](O)CO.CNC[C@H](O)[C@@H](O)[C@H](O)[C@H](O)CO.O=C([O-])CN(CCN(CC(=O)[O-])CC(=O)O)CCN(CC(=O)O)C(COCc1ccccc1)C(=O)[O-].[Gd+3] (stereo not shown) [Gd-BOPTA, gadobenate dimeglumine] | – | 5.2 mM⁻¹ s⁻¹ and 5.20 mM⁻¹ s⁻¹ | 5.0×10^6 | 200 ns | 5.20 mM⁻¹ s⁻¹ | 2.96 Å | 4.2 E19 s^−1 | 88 ps | 26 ps | dose dependence of uptake [2]: not significant; hepatic intensity enhancement (liver [3]): 55%; hepatocellular uptake (hepatocytes [5]; rats): 38.6%; percentage of contrast agent excreted (hepatocytes [6]; humans, intravenous injection): over 95%; hepatic (hepatocellular) uptake (hepatocytes [6]; humans): 3-5 % of the injected dose; relaxivity (NMRD profile) [7]: 5.20 mM⁻¹ s⁻¹
6 | CNC[C@H](O)[C@@H](O)[C@H](O)[C@H](O)CO.O=C([O-])CN1CCN(CC(=O)[O-])CCN(CC(=O)O)CCN(CC(=O)[O-])CC1.[Gd+3] [Gd-DOTA, gadoterate meglumine] | – | 4.73 mM⁻¹ s⁻¹ | 3.3×10^6 | 300 ns | 4.73 mM⁻¹ s⁻¹ | 3.10 Å | 1.3 E19 s^−1 | 73 ps | 7.7 ps | relaxivity (NMRD profile) [7]: 4.73 mM⁻¹ s⁻¹
7 | CNC[C@H](O)[C@@H](O)[C@H](O)[C@H](O)CO.CNC[C@H](O)[C@@H](O)[C@H](O)[C@H](O)CO.O=C([O-])CN(CCN(CC(=O)[O-])CC(=O)O)CCN(CC(=O)[O-])CC(=O)O.[Gd+3] [Gd-DTPA, gadopentetate dimeglumine] | – | 4.69 mM⁻¹ s⁻¹ | 4.0×10^6 | 250 ns | 4.69 mM⁻¹ s⁻¹ | 3.10 Å | 4.2 E19 s^−1 | 73 ps | 20 ps | osmolality [8]: 1.96 osmol kg^−1; tolerance (liver [9]): good tolerance
8 | CCOc1ccc(C[C@@H](CN(CCN(CC(=O)[O-])CC(=O)[O-])CC(=O)[O-])N(CC(=O)[O-])CC(=O)[O-])cc1.[Gd+3].[Na+].[Na+] [Gd-EOB-DTPA] | – | – | – | – | – | – | – | – | – | hepatocellular uptake (hepatocytes [5]; rat, in vivo): 70%; hepatic (hepatocellular) uptake (hepatocytes [6]; in vivo): 50 % of the injected dose
9 | CC(O)CN1CCN(CC(=O)[O-])CCN(CC(=O)[O-])CCN(CC(=O)[O-])CC1.[Gd+3] (stereo not shown) [Gd-HP-DO3A, gadoteridol] | 3.70 (40) mM^−1 s^−1 | – | – | – | – | – | – | – | – | –
